Assay: Stability of QC samples in rat plasma and tissue homogenates under different storage conditions
Type: in vitro ADME
Settings: in % (unit assumed)

For `O=C(/C=C/c1ccc(O)c(O)c1)O[C@@H]1C[C@](O)(C(=O)O)C[C@@H](O)[C@H]1O` [Chlorogenic acid], the “Accuracy, Ambient temperature for 4 h” value (Brain, 2 ng/mL) was 110.33 ± 7.55, the “Accuracy, Three freeze-thraw cycles” value (Brain, 2 ng/mL) was 105.65 ± 10.92 and the “Accuracy, −80°C for 30 days” value (Brain, 2 ng/mL) was 90.73 ± 10.25. The “Accuracy, Ambient temperature for 4 h” value (Brain, 4 ng/mL) was 89.12 ± 9.00, the “Accuracy, Three freeze-thraw cycles” value (Brain, 4 ng/mL) was 90.68 ± 10.51 and the “Accuracy, −80°C for 30 days” value (Brain, 4 ng/mL) was 105.32 ± 9.72. The “Accuracy, Ambient temperature for 4 h” value (Brain, 100 ng/mL) was 91.93 ± 9.93, the “Accuracy, Three freeze-thraw cycles” value (Brain, 100 ng/mL) was 108.13 ± 9.91 and the “Accuracy, −80°C for 30 days” value (Brain, 100 ng/mL) was 105.48 ± 6.92. For the same compound, the “Accuracy, Ambient temperature for 4 h” value (Brain, 2400 ng/mL) was 102.93 ± 5.79, the “Accuracy, Three freeze-thraw cycles” value (Brain, 2400 ng/mL) was 96.57 ± 10.12 and the “Accuracy, −80°C for 30 days” value (Brain, 2400 ng/mL) was 97.98 ± 9.56. For the same compound, the “Accuracy, Ambient temperature for 4 h” value (Heart, 2 ng/mL) was 102.73 ± 12.98, the “Accuracy, Three freeze-thraw cycles” value (Heart, 2 ng/mL) was 91.72 ± 6.33 and the “Accuracy, −80°C for 30 days” value (Heart, 2 ng/mL) was 88.98 ± 5.73. The “Accuracy, Ambient temperature for 4 h” value (Heart, 4 ng/mL) was 96.88 ± 11.06, the “Accuracy, Three freeze-thraw cycles” value (Heart, 4 ng/mL) was 99.03 ± 10.17 and the “Accuracy, −80°C for 30 days” value (Heart, 4 ng/mL) was 102.27 ± 10.30. For the same compound, the “Accuracy, Ambient temperature for 4 h” value (Heart, 100 ng/mL) was 112.83 ± 9.11, the “Accuracy, Three freeze-thraw cycles” value (Heart, 100 ng/mL) was 111.00 ± 7.72 and the “Accuracy, −80°C for 30 days” value (Heart, 100 ng/mL) was 112.62 ± 8.15. The “Accuracy, Ambient temperature for 4 h” value (Heart, 2400 ng/mL) was 108.60 ± 8.41, the “Accuracy, Three freeze-thraw cycles” value (Heart, 2400 ng/mL) was 110.55 ± 8.11 and the “Accuracy, −80°C for 30 days” value (Heart, 2400 ng/mL) was 104.85 ± 10.69. The “Accuracy, Ambient temperature for 4 h” value (Kidney, 2 ng/mL) was 110.07 ± 7.34, the “Accuracy, Three freeze-thraw cycles” value (Kidney, 2 ng/mL) was 97.22 ± 7.67 and the “Accuracy, −80°C for 30 days” value (Kidney, 2 ng/mL) was 89.87 ± 9.23. For the same compound, the “Accuracy, Ambient temperature for 4 h” value (Kidney, 4 ng/mL) was 87.63 ± 7.76, the “Accuracy, Three freeze-thraw cycles” value (Kidney, 4 ng/mL) was 87.60 ± 9.26 and the “Accuracy, −80°C for 30 days” value (Kidney, 4 ng/mL) was 89.60 ± 9.05. The “Accuracy, Ambient temperature for 4 h” value (Kidney, 100 ng/mL) was 112.00 ± 7.01, the “Accuracy, Three freeze-thraw cycles” value (Kidney, 100 ng/mL) was 111.17 ± 7.44 and the “Accuracy, −80°C for 30 days” value (Kidney, 100 ng/mL) was 103.22 ± 11.32. For the same compound, the “Accuracy, Ambient temperature for 4 h” value (Kidney, 2400 ng/mL) was 100.55 ± 5.11, the “Accuracy, Three freeze-thraw cycles” value (Kidney, 2400 ng/mL) was 100.45 ± 3.96 and the “Accuracy, −80°C for 30 days” value (Kidney, 2400 ng/mL) was 101.23 ± 4.69. For the same compound, the “Accuracy, Ambient temperature for 4 h” value (Liver, 2 ng/mL) was 88.47 ± 6.93, the “Accuracy, Three freeze-thraw cycles” value (Liver, 2 ng/mL) was 88.47 ± 7.22 and the “Accuracy, −80°C for 30 days” value (Liver, 2 ng/mL) was 87.43 ± 7.74. For the same compound, the “Accuracy, Ambient temperature for 4 h” value (Liver, 4 ng/mL) was 86.27 ± 7.32, the “Accuracy, Three freeze-thraw cycles” value (Liver, 4 ng/mL) was 86.00 ± 6.23 and the “Accuracy, −80°C for 30 days” value (Liver, 4 ng/mL) was 87.30 ± 4.35. The “Accuracy, Ambient temperature for 4 h” value (Liver, 100 ng/mL) was 99.82 ± 2.89, the “Accuracy, Three freeze-thraw cycles” value (Liver, 100 ng/mL) was 102.27 ± 4.97 and the “Accuracy, −80°C for 30 days” value (Liver, 100 ng/mL) was 87.13 ± 5.77. For the same compound, the “Accuracy, Ambient temperature for 4 h” value (Liver, 2400 ng/mL) was 104.17 ± 2.14, the “Accuracy, Three freeze-thraw cycles” value (Liver, 2400 ng/mL) was 99.98 ± 1.86 and the “Accuracy, −80°C for 30 days” value (Liver, 2400 ng/mL) was 87.02 ± 5.24. The “Accuracy, Ambient temperature for 4 h” value (Lung, 2 ng/mL) was 103.27 ± 8.01, the “Accuracy, Three freeze-thraw cycles” value (Lung, 2 ng/mL) was 112.93 ± 9.57 and the “Accuracy, −80°C for 30 days” value (Lung, 2 ng/mL) was 113.77 ± 9.20. The “Accuracy, Ambient temperature for 4 h” value (Lung, 4 ng/mL) was 101.83 ± 6.41, the “Accuracy, Three freeze-thraw cycles” value (Lung, 4 ng/mL) was 100.07 ± 10.39 and the “Accuracy, −80°C for 30 days” value (Lung, 4 ng/mL) was 98.77 ± 6.15. For the same compound, the “Accuracy, Ambient temperature for 4 h” value (Lung, 100 ng/mL) was 111.50 ± 5.47, the “Accuracy, Three freeze-thraw cycles” value (Lung, 100 ng/mL) was 110.17 ± 7.14 and the “Accuracy, −80°C for 30 days” value (Lung, 100 ng/mL) was 110.03 ± 9.33. For the same compound, the “Accuracy, Ambient temperature for 4 h” value (Lung, 2400 ng/mL) was 100.67 ± 10.17, the “Accuracy, Three freeze-thraw cycles” value (Lung, 2400 ng/mL) was 104.88 ± 8.23 and the “Accuracy, −80°C for 30 days” value (Lung, 2400 ng/mL) was 110.17 ± 4.54. For the same compound, the “Accuracy, Ambient temperature for 4 h” value (Plasma, 2 ng/mL) was 101.68 ± 8.39, the “Accuracy, Three freeze-thraw cycles” value (Plasma, 2 ng/mL) was 101.23 ± 12.44 and the “Accuracy, −80°C for 30 days” value (Plasma, 2 ng/mL) was 93.35 ± 10.78. The “Accuracy, Ambient temperature for 4 h” value (Plasma, 4 ng/mL) was 86.78 ± 6.16, the “Accuracy, Three freeze-thraw cycles” value (Plasma, 4 ng/mL) was 95.02 ± 5.39 and the “Accuracy, −80°C for 30 days” value (Plasma, 4 ng/mL) was 98.92 ± 12.32. For the same compound, the “Accuracy, Ambient temperature for 4 h” value (Plasma, 100 ng/mL) was 112.33 ± 3.72, the “Accuracy, Three freeze-thraw cycles” value (Plasma, 100 ng/mL) was 100.68 ± 6.22 and the “Accuracy, −80°C for 30 days” value (Plasma, 100 ng/mL) was 113.17 ± 4.96. For the same compound, the “Accuracy, Ambient temperature for 4 h” value (Plasma, 2400 ng/mL) was 98.40 ± 5.56, the “Accuracy, Three freeze-thraw cycles” value (Plasma, 2400 ng/mL) was 91.98 ± 4.75 and the “Accuracy, −80°C for 30 days” value (Plasma, 2400 ng/mL) was 112.67 ± 7.58. For the same compound, the “Accuracy, Ambient temperature for 4 h” value (Small intestine, 2 ng/mL) was 105.00 ± 8.20, the “Accuracy, Three freeze-thraw cycles” value (Small intestine, 2 ng/mL) was 103.90 ± 4.49 and the “Accuracy, −80°C for 30 days” value (Small intestine, 2 ng/mL) was 101.42 ± 7.82. For the same compound, the “Accuracy, Ambient temperature for 4 h” value (Small intestine, 4 ng/mL) was 91.73 ± 4.49, the “Accuracy, Three freeze-thraw cycles” value (Small intestine, 4 ng/mL) was 99.78 ± 7.70 and the “Accuracy, −80°C for 30 days” value (Small intestine, 4 ng/mL) was 106.70 ± 5.43. For the same compound, the “Accuracy, Ambient temperature for 4 h” value (Small intestine, 100 ng/mL) was 95.90 ± 12.31, the “Accuracy, Three freeze-thraw cycles” value (Small intestine, 100 ng/mL) was 100.93 ± 12.33 and the “Accuracy, −80°C for 30 days” value (Small intestine, 100 ng/mL) was 99.07 ± 12.41. The “Accuracy, Ambient temperature for 4 h” value (Small intestine, 2400 ng/mL) was 112.00 ± 5.37, the “Accuracy, Three freeze-thraw cycles” value (Small intestine, 2400 ng/mL) was 111.67 ± 6.12 and the “Accuracy, −80°C for 30 days” value (Small intestine, 2400 ng/mL) was 110.83 ± 6.68. The “Accuracy, Ambient temperature for 4 h” value (Spleen, 2 ng/mL) was 97.62 ± 8.11, the “Accuracy, Three freeze-thraw cycles” value (Spleen, 2 ng/mL) was 105.55 ± 7.56 and the “Accuracy, −80°C for 30 days” value (Spleen, 2 ng/mL) was 109.70 ± 13.05. For the same compound, the “Accuracy, Ambient temperature for 4 h” value (Spleen, 4 ng/mL) was 105.82 ± 9.91, the “Accuracy, Three freeze-thraw cycles” value (Spleen, 4 ng/mL) was 103.68 ± 9.71 and the “Accuracy, −80°C for 30 days” value (Spleen, 4 ng/mL) was 98.88 ± 4.16. The “Accuracy, Ambient temperature for 4 h” value (Spleen, 100 ng/mL) was 112.00 ± 7.82, the “Accuracy, Three freeze-thraw cycles” value (Spleen, 100 ng/mL) was 106.82 ± 6.88 and the “Accuracy, −80°C for 30 days” value (Spleen, 100 ng/mL) was 111.17 ± 7.17. The “Accuracy, Ambient temperature for 4 h” value (Spleen, 2400 ng/mL) was 101.52 ± 7.73, the “Accuracy, Three freeze-thraw cycles” value (Spleen, 2400 ng/mL) was 106.67 ± 5.43 and the “Accuracy, −80°C for 30 days” value (Spleen, 2400 ng/mL) was 104.73 ± 7.04. For the same compound, the “Accuracy, Ambient temperature for 4 h” value (Stomach, 2 ng/mL) was 113.08 ± 11.06, the “Accuracy, Three freeze-thraw cycles” value (Stomach, 2 ng/mL) was 113.58 ± 8.22 and the “Accuracy, −80°C for 30 days” value (Stomach, 2 ng/mL) was 109.08 ± 9.97. The “Accuracy, Ambient temperature for 4 h” value (Stomach, 4 ng/mL) was 102.70 ± 10.17, the “Accuracy, Three freeze-thraw cycles” value (Stomach, 4 ng/mL) was 98.87 ± 9.82 and the “Accuracy, −80°C for 30 days” value (Stomach, 4 ng/mL) was 89.87 ± 7.04. The “Accuracy, Ambient temperature for 4 h” value (Stomach, 100 ng/mL) was 93.75 ± 8.65, the “Accuracy, Three freeze-thraw cycles” value (Stomach, 100 ng/mL) was 93.47 ± 6.76 and the “Accuracy, −80°C for 30 days” value (Stomach, 100 ng/mL) was 107.33 ± 5.89. The “Accuracy, Ambient temperature for 4 h” value (Stomach, 2400 ng/mL) was 107.17 ± 8.68, the “Accuracy, Three freeze-thraw cycles” value (Stomach, 2400 ng/mL) was 100.23 ± 4.63 and the “Accuracy, −80°C for 30 days” value (Stomach, 2400 ng/mL) was 99.73 ± 10.09.
